Reference: patent US8263044B2, “Stilbene like compounds as novel HDAC inhibitors” (Orchid Research Laboratories Limited, priority 2005, dated 2012)

Columns and labels:
[1] = system: NCIH460, HCT116, MDAMB231/U251; test: Anti-cancer screen, mean GI50 over the cell lines; assay type: cell-based; conditions: mean over the three cell lines; no unit in table
Description: (§1) Experimental drugs are screened for anti-cancer activity in three cell lines for their GI50, TGI and LC50 values (using five concentrations for each compound). The cell lines are maintained in DMEM containing 10% fetal bovine serum. 96 well micro titer plates are inoculated with cells in 100 μL for 24 h at 37° C., 5% CO2, 95% air and 100% relative humidity. 5000 HCT 116 cells/well, 5000 NCIH 460 cells/well and 5000 U251 cells/well are plated. A separate plate with these cell lines is also inoculated to determine cell viability before the addition of the compounds (T0) (See Table I).
(§2) Following 24-hour incubation, experimental drugs are added to the 96 well plates. Each plate contains one of the above cell lines and the following in triplicate: five different concentrations (0.01, 0.1, 1, 10 and 100 μM) of four different compounds, appropriate dilutions of a cytotoxic standard and control (untreated) wells. Compounds are dissolved in DMSO to make 20 mM stock solutions on the day of drug addition and frozen at −20° C. Serial dilutions of these 20 mM stock solutions are made in complete growth medium such that 100 μL of these drug solutions in medium, of final concentrations equaling 0.01, 0.1, 1, 10 and 100 μM can be added to the cells in triplicate. […] (See Table I).
(§3) For T0 measurement, 24 hours after seeding the cells, 10 μL of 3-(4,5-Dimethyl-2-thiazolyl)-2,5-diphenyl-2H-tetrazolium (MTT) solution per well is added and incubation carried out for 3 hours at 37° C., 5% CO2, 95% air and 100% relative humidity, protected from light. Cells incubated with compounds for 48 hours are treated similarly except with the addition of 20 μL MTT solution per well and a subsequent incubation under the same conditions. After 3 hours of MTT incubation, well contents are aspirated carefully followed by addition of 150 μL DMSO per well. Plates are agitated to ensure solution of the formazan crystals in DMSO and absorbance read at 570 nm. (See Table I).
Percent growth is calculated for each compound's concentration relative to the control and zero measurement wells (T0; viability right before compound addition). […]

MDAMB231/U251 [2] = test: cells; conditions: 48 h, read-out: MDAMB231/U251 LC50
MDAMB231/U251 [3] = test: cells; conditions: 48 h, read-out: MDAMB231/U251 GI50
Description: as §1, §2, §3
(§4) Percent growth is calculated for each compound's concentration relative to the control and zero measurement wells (T0; viability right before compound addition).
(§5) If a test well's O.D. value is lower than the T0 measurement for that cell line, then, % Growth=(test−zero)/zero×100

HCT 116 cells = test: cells; conditions: Homo sapiens, HCT-116, 48 h; for GI50: read-out: HCT116 GI50; for CC50: read-out: HCT116 LC50
Description: as §1, §2, §3, §4, §5

NCIH 460 cells = test: cells; conditions: Homo sapiens, NCI-H460, 48 h; for GI50: read-out: NCIH460 GI50; for CC50: read-out: NCIH460 LC50
Description: as §1, §2, §3, §4, §5

[4] = system: HDAC activity (Mouse Liver Extract); test: Histone Deacetylase (HDAC) Inhibition Assay using Boc-Lys (Ac)-AMC Substrate; assay type: biochemical; conditions: mouse liver enzyme; for HDAC Inhibition 1 μM: inhibitor at 1 μM; for HDAC Inhibition 1 μM / HDAC Inhibition 10 μM: in % (unit assumed); for HDAC Inhibition 10 μM: inhibitor at 10 μM
Description: Histone Deacetylase (HDAC) Inhibition Assay using Boc-Lys (Ac)-AMC Substrate: Inhibition of HDAC has been implicated to modulate transcription and to induce apoptosis or differentiation in cancer cells. The fluorometric assay provides a fast and fluorescence based method that eliminates radioactivity, extractions or chromatography, as used in traditional assays. The assay based on two steps. First, the HDAC fluorometric substrate, which comprises an acetylated lysine side chain, is incubated with a sample containing HDAC activity (Mouse Liver Extract). Deacetylation of the substrate sensitizes the substrate, in the second step; treatment with the Trypsin stop solution produces a fluorophore that can be easily analyzed using fluorescence plate reader.
Assay was done in 96 well black microplate and total volume of the assay is 100 ul. Mouse liver enzyme is diluted 1:6 with HDAC buffer. Enzyme cocktail made of 10 ul of diluted enzyme and 30 ul of HDAC buffer. 40 ul of enzyme cocktail dispensed into each well. 10 ul of different concentrations of inhibitor added in to each well, except enzyme control well. Preincubated the plate at 30° C. for 5 minutes. The HDAC reaction is started by adding 50 ul of HDAC substrate (Boc-Lys (Ac)-AMC Substrate) solution. Incubated the plate at 30° C. for 30 minutes. Adding 100 ul of Trypsin stop solution stops the reaction. The plate is incubated again at 30° C. for 20-30 minutes. The release of AMC is monitored by measuring the fluorescence at excitation wavelength of 365 or 360 nm and emission wavelength of 440 or 460 nm. Buffer and substrate alone kept for blank subtraction. (Dennis Wegener et al, Anal. Biochem, 321, 2003, 202-208).

SMILES | GI50 [1] [µM] | CC50 (MDAMB231/U251 [2]) [µM] | GI50 (MDAMB231/U251 [3]) [µM] | GI50 (HCT 116 cells) [µM] | CC50 (HCT 116 cells) [µM] | GI50 (NCIH 460 cells) [µM] | CC50 (NCIH 460 cells) [µM] | HDAC Inhibition 1 μM [4] | HDAC Inhibition 10 μM [4] | IC50 [4] [µM]
O=C(CCCCCNC(=O)/C(=C\c1ccc(Br)s1)c1ccc(Br)cc1)NO [Example 13, (2Z)-3-(5-Bromo-2-thienyl)-2-(4-bromophenyl)-N-[6-(hydroxyamino)-6-oxohexyl]acrylamide] | 5 | 80 | 3 | 5 | 70 | 7 | 75 | 53.83 | 89.18 | 2.95
Cc1ncsc1/C=C(\C(=O)NCCCCCC(=O)NO)c1ccc(C(F)(F)F)cc1 [Example 26, (2Z)-3-(4-Methylthiazol-5-yl)-2-(4-trifluoromethylphenyl)-N-[6-(hydroxyamino)-6-oxohexyl]acrylamide] | 17.7 | 85 | 10 | 9 | 100 | 34 | > 100 | 39.38 | 76.69 | –
COc1cc(/C=C(\C(=O)NCCCCCC(=O)NO)c2ccc(F)cc2)ccc1O [Example 46, (2Z)-3-(4-Hydroxy-3-methoxyphenyl)-2-(4-fluorophenyl)-N-[6-(hydroxyamino)-6-oxohexyl]acrylamide] | 5 | > 100 | 3.5 | 7 | > 100 | 5 | > 100 | 60.53 | 70.82 | –
CSc1ccc(/C=C(\C(=O)NCCCCCC(=O)Nc2nc3cc(C)ccc3s2)c2ccc(F)cc2)cc1 [Example 19, (2Z)-3-(4-Thiomethylphenyl)-2-(4-fluorophenyl)-N-[6-(5-methyl-2-benzothiazoleamine)-6-oxohexyl]acrylamide] | 6.9 | > 100 | 5.8 | > 100 | > 100 | 8 | > 100 | −22.2 | 10.2 | –
COc1cc(/C=C(\C(=O)NCCCCCC(=O)NO)c2ccc(F)cc2)cc(OC)c1 [Example 1, (2Z)-3-(3,5-Dimethoxyphenyl)-2-(4-fluorophenyl)-N-[6-(hydroxyamino)-6-oxohexyl]acrylamide] | 2.6 | 75 | 0.1 | 5 | 70 | > 100 | > 100 | 53.76 | 66.42 | 0.22
Cc1ncsc1/C=C(\C(=O)NCCCCCC(=O)NO)c1ccc(Br)cc1 [Example 23, (2Z)-3-(4-Methylthiazol-5-yl)-2-(4-bromophenyl)-N-[6-(hydroxyamino)-6-oxohexyl]acrylamide] | 2.6 | 90 | 1 | 6 | > 100 | 0.8 | > 100 | 42.7 | 81.07 | 1.8
CSc1ccc(/C=C(\C(=O)NCCCCCC(=O)Nc2ncc([N+](=O)[O-])s2)c2ccc(F)cc2)cc1 [Example 17, (2Z)-3-(4-Thiomethylphenyl)-2-(4-fluorophenyl)-N-[6-(5-nitro-2-thiazoleamine)-6-oxohexyl]acrylamide] | 0.3 | > 100 | 0.71 | 0.03 | > 100 | 0.25 | > 100 | 0.7 | 2.3 | –
CSc1ccc(/C=C(\C(=O)NCCCCCC(=O)NO)c2cccs2)cc1 [Example 43, (2Z)-3-(4-Thiomethylphenyl)-2-(thiophene-2-yl)-N-[6-(hydroxyamino)-6-oxohexyl]acrylamide] | 5.02 | 75 | 0.05 | 5 | 70 | 10 | > 100 | 89.26 | 100 | 0.26
COc1cc(/C=C(\C(=O)NCCCCCC(=O)Nc2cccc(O)c2)c2ccc(F)cc2)cc(OC)c1 [Example 3] | 54.3 | > 100 | 73 | 40 | > 100 | 50 | > 100 | −6.41 | −6.45 | –
CSc1ccc(/C=C(\C(=O)NCCCCCC(=O)Nc2nccs2)c2ccc(F)cc2)cc1 [Example 20, (2Z)-3-(4-Thiomethylphenyl)-2-(4-fluorophenyl)-N-[6-(2-thiazoleamine)-6-oxohexyl]acrylamide] | 2 | > 100 | 3 | > 100 | > 100 | 1 | > 100 | – | 5.57 | –
COc1cc(/C=C(\C(=O)NCCCCCC(=O)Nc2ccccc2O)c2ccc(O)cc2)cc(OC)c1OC [Example 6] | 47 | > 100 | 60 | 38 | 91 | 44 | 85 | 15.9 | 36.1 | –
O=C(CCCCCNC(=O)/C(=C\c1ccc(C(F)(F)F)cc1)c1ccc(F)cc1)NO [Example 47, (2Z)-3-(4-Trifluoromethylphenyl)-2-(4-fluorophenyl)-N-[6-(hydroxyamino)-6-oxohexyl]acrylamide] | 9.8 | > 100 | 7.5 | 9 | 95 | 13 | 98 | 49.92 | 87.19 | –
COc1cc(/C=C(\C(=O)NCCCCCC(=O)Nc2ccccc2N)c2ccc(O)cc2)cc(OC)c1 [Example 4] | 36 | > 100 | 55 | 9.4 | 80 | 45 | > 100 | 16.9 | 24 | –
COc1cc(/C=C(\C(=O)NCCCCCC(=O)N(C)OC)c2ccc(O)cc2)cc(OC)c1OC [Example 7, (2Z)-3-(3,4,5-Trimethoxyphenyl)-2-(4-hydroxyphenyl)-N-[6-(N,O dimethylamine)-6-oxohexyl]acrylamide] | 0.6 | > 100 | 0.8 | 0.98 | > 100 | 0.01 | 10 | 7.3 | 3.8 | –
COc1cc(/C=C(\C(=O)NCCCCCC(=O)Nc2ccccc2O)c2ccc(F)cc2)cc(OC)c1 [Example 2] | 29 | > 100 | 30 | 30 | 73 | 27 | 56 | 7.73 | 10.46 | –
